The values below come from PMC4539421, “A Novel Microbisporicin Producer Identified by Early Dereplication during Lantibiotic Screening” (BioMed Research International, 2015).

The subject of one assay is S. aureus L-form L3751. In words: Bioautography of HPLC fractions, S. aureus L-form. The note with it: 1 mL HPLC fractions dried, resuspended in 100 μL 10% DMSO, 10 μL tested. It is filed as cell-based, Staphylococcus aureus. How it is done: (§1) For bioautography, fractions (1 mL, eluting at 1 mL/min) from the HPLC column were collected, dried, and resuspended in 100 μL aqueous solution at 10% (v/v) DMSO. 10 μL were tested for antimicrobial activity. UV and mass spectra of molecules present in the active fractions were compared with those collected in the ABL database, which contains data on approximately 30,000 microbial metabolites collected from literature and patents since 1950 [20, 28], and in the commercially available Antibase (http://wwwuser.gwdg.de/~hlaatsc/antibase.htm).

A further assay concerns S. aureus. In words: Bioautography of HPLC fractions, S. aureus. It is filed as cell-based, Staphylococcus aureus. The settings on record: 1 mL HPLC fractions dried, resuspended in 100 μL 10% DMSO, 10 μL tested. The method, then:
as §1

For a further assay, the system named is L49 S. pyogenes. In words: MIC by broth microdilution, S. pyogenes. It is filed as cell-based, Streptococcus pyogenes. The settings on record: broth microdilution assay [27]. The method, then:
(§2) Broth and mycelium screening extracts from the F.I.I.R.V. collection of Actinoallomurus strains isolated according as above were screened in liquid microplate assays for their antimicrobial activity on S. aureus 209 ATCC 6538P (L100) and to its L-form cells (L3751), as described in detail in [7]. In brief, S. aureus 209 ATCC 6538P (L100) and its L-form cells (L3751) were maintained at −80°C in Nutrient Broth (Difco) to which 20% (v/v) glycerol was added. EBH/S supplemented with 5% (v/v) horse serum was used as medium. For the wild-type inoculum, 10 μL of extracts previously dissolved in DMSO : H2O 1 : 9 (v/v) were added to 1 × 10^5 CFU/mL in 90 μL of culture broth. For L-form cells, aliquots of liquid cultures grown overnight in EBHI/S to O.D.620 nm = 0.2 were used as inoculum. Incubation time was 24 h at 35°C in air, and then growth inhibition was measured at O.D.620 nm. Reference actagardine, planosporicin, microbisporicin, mersacidin, and nisin standards were used and MIC levels were determined by broth microdilution assay as recommended by the National Committee for Clinical Laboratory Standards. To identify β-lactam producers, antimicrobial activity versus S. aureus 209 ATCC 6538P (L100) was measured in a liquid microplate assay after adding the following cocktail of β-lactamases: Penicillase Type I from Bacillus cereus (Sigma P0389), 0.001 U/mL; Penicillase Type II from Bacillus cereus (Sigma P6018), 0.002 U/mL; Penicillase type III from Enterobacter cloacae (Sigma P4399), 0.0025 U/mL; and Penicillase type IV from Enterobacter cloacae (Sigma P4524), 0.5 U/mL. To identify glycopeptide producers, antimicrobial activity versus S. aureus 209 ATCC 6538P (L100) was measured in a liquid microplate assay after adding 2 mg/mL of Ac-Lys-D-alanyl-D-alanine (Chem-Impex International Inc., IL).
(§3) Antimicrobial activity was determined by broth microdilution assay according to standard guidelines. […]
(In general: In broth dilution the organism is exposed to a series of concentrations in liquid medium.)

A further assay deals with L3751 S. aureus L-form. The experiment in a line: MIC by broth microdilution, S. aureus L-form. It is filed as cell-based, Staphylococcus aureus. The note with it: broth microdilution assay [27]; L-form cells. The method, then:
Staphylococcus aureus 209 ATCC 6538P (L100) were purchased from the American Type Culture Collection (ATCC; Manassas VA). L-form cells (L3751) were prepared from L100 by exposure to 100 U of penicillin in Enterococcal Brain Heart Infusion/S (EBH/S) supplemented with 5% NaCl, 5% sucrose, and 10% horse serum as previously described. L-forms were then cultured on similarly supplemented brain heart infusion agar containing no antibiotic. S. aureus Smith ATCC19636 (L819), Streptococcus pyogenes C203 ATCC12384 (L49), and other clinical isolates (S. aureus L1400, Enterococcus faecalis L559, Enterococcus faecalis Van A L560, Escherichia coli SKF12140 L47, and Candida albicans SKF2270 L145) were maintained in the Fondazione Istituto Insubrico Ricerca per la Vita (F.I.I.R.V.) culture collection (L collection) at Gerenzano, Italy.
as §2, §3

The next assay concerns L100 S. aureus ATCC6538P. The experiment in a line: MIC by broth microdilution, S. aureus. It is filed as cell-based, Staphylococcus aureus. The settings on record: broth microdilution assay [27]. The method, then: as §2
(§4) Antimicrobial activity was determined by broth microdilution assay according to standard guidelines. The growth media utilized to determine the MIC were cation-adjusted Difco Mueller Hinton Broth (MHB) for Staphylococci, Enterococci, and E. coli, Todd Hewitt Broth (THB) for Streptococci, and RPMI-1640 medium (RPMI) for C. albicans. Typically, a twofold serial dilution of the test compound was performed in a sterile 96-well microplate inoculated with 10^4 CFU/mL of the test strain in the appropriate medium. The microplate was then incubated for 18–24 h at 35°C.

The subject of another assay is L145 C. albicans. The class given is cell-based, Candida albicans. The settings on record: broth microdilution assay [27]. How it is done:
as §2, §3

The subject of a further assay is L1400 S. aureus MRSA. The experiment in a line: MIC by broth microdilution, MRSA. The class given is cell-based, Staphylococcus aureus. The note with it: broth microdilution assay [27]; MRSA clinical isolate. How it is done:
as §2, §4

Another assay deals with L47 E. coli. It is filed as cell-based, Escherichia coli. The note with it: broth microdilution assay [27]. How it is done:
as §2, §3

No end group written: not given here. Where only a bound is given, the exact number is not on record here.

For Microbisporicin A2, the “Growth inhibition by HPLC fraction (bioautography)” value in the assay on S. aureus L-form L3751 is listed as “but not its L-form”; with S. aureus, “inhibits the microbial growth”.
The term MIC denotes the lowest concentration found to suppress growth. Regarding Microbisporicin, the MIC against L49 S. pyogenes is under 1 µg/mL; with L3751 S. aureus L-form, over 128 µg/mL; against L100 S. aureus ATCC6538P it was at most 0.13 µg/mL; in the assay with L145 C. albicans, over 128 µg/mL; in the assay on L1400 S. aureus MRSA, at most 0.13 µg/mL; against L47 E. coli, over 128 µg/mL.
Actagardine: the MIC against L49 S. pyogenes is 2 µg/mL; with L3751 S. aureus L-form, over 128 µg/mL; with L100 S. aureus ATCC6538P, 32 µg/mL; against L145 C. albicans it was over 128 µg/mL; in the assay with L1400 S. aureus MRSA, 16 µg/mL; against L47 E. coli it was over 128 µg/mL.
Planosporicin: the MIC was under 1 µg/mL with L49 S. pyogenes; over 128 µg/mL in the assay with L3751 S. aureus L-form; 2 µg/mL with L100 S. aureus ATCC6538P; over 128 µg/mL in the assay on L145 C. albicans; 16 µg/mL in the assay with L1400 S. aureus MRSA; over 128 µg/mL in the assay on L47 E. coli.
For the substance “Mersacidin (CTFTLPGGGGVCTLTSECIC; also: lantibiotic mersacidin, thioether rings not placed; UniProt P43683 49-68, looked up) [lantibiotic standard]”, the MIC stood at 64 µg/mL in the assay on L3751 S. aureus L-form, 4 µg/mL in the assay with L100 S. aureus ATCC6538P and 8 µg/mL in the assay with L1400 S. aureus MRSA.
